# No end group written: not given here.
# Target: HIV-1 Vpr (Human immunodeficiency virus type 1 group M subtype B, UniProt P12520)
# Conditions: heptapeptide fused to Gal4AD, co-expressed with Vpr-Gal4 DNA-binding domain chimera
# Excerpt: DNA fragments encoding the variable heptapeptide region of the coat protein of individual phage isoforms selected from the library described herein were amplified using PCR from purified phage DNA. Amplified peptide-encoding DNA was cloned in frame between the EcoRI and BglII restriction endonuclease sites of pGADGH for use in yeast two-hybrid system experiments.
# The yeast reporter strain, HF7c, which comprises two Gal4-inducible reporter genes, namely HIS3 and LacZ, has been described (BouHamdan et al., 1996, J. Virol. 70:697-704). HF7c cells were transformed with two plasmids, pGB-UDG and pGA-Vpr, using known methods to yield double transformant HF7c cells. […] Cells obtained from these plates were used in a liquid culture assay with yeast reporter strain SFY526 to detect beta-galactosidase activity, as described (BouHamdan et al., 1996, J. Virol. 70:697-704; Bartel et al., 1993, Biotech. 14:920-924). […] was used as the substrate in the assay, and each assay was performed in triplicate.
# Intracellular interaction of ten of the heptapeptide regions listed in Table 2 with HIV-1 Vpr was further tested using the yeast two-hybrid system.
row,Substance,ability of double transformant HF7c cells to grow on histidine-deficient medium
1,GHTWWTF [Pep#7],better able to grow on histidine-deficient medium than the other double transformants tested
2,TTWWWQF [Pep#4],"better able to grow on histidine-deficient medium than those which expressed chimeric proteins having an amino acid sequence identified in Table 2 as Pep#1 (SEQ ID NO: 16), Pep#8 (SEQ ID NO: 17), or Pep#10 (SEQ ID NO: 18)"
3,WHSFPPP [Pep#8],able to grow on histidine-deficient medium
4,WHSFPDS [Pep#10],able to grow on histidine-deficient medium
5,SWWSFTP [Pep#1],able to grow on histidine-deficient medium
6,SAPWWTF [Pep#5],"better able to grow on histidine-deficient medium than those which expressed chimeric proteins having an amino acid sequence identified in Table 2 as Pep#1 (SEQ ID NO: 16), Pep#8 (SEQ ID NO: 17), or Pep#10 (SEQ ID NO: 18)"
7,LPPWAAF [Pep#6],better able to grow on histidine-deficient medium than the other double transformants tested
8,KPKWAIV [Pep#2],unable to grow on histidine-deficient medium
9,KPMWWHF [Pep#9],better able to grow on histidine-deficient medium than the other double transformants tested
10,WHDFPLV [Pep#3],better able to grow on histidine-deficient medium than the other double transformants tested
